Experimental data taken from patent US10519169B2, “3-(1H-pyrrolo[2,3-C]pyridin-2-yl)-1 H-pyrazolo[4,3-B]pyridines and therapeutic uses thereof” (Samumed, LLC, priority 2015, dated 2019).

Key:
Type in all cases: cell-based
[1] = system: primary human fibroblasts derived from IPF patients (LL29 cells) treated with TGF-β1; assay: Inhibition of fibrotic process, αSMA staining in TGF-β1 treated LL29 fibroblasts; details: Fibroblast, 96 h, TGF-β1 20 ng/mL, 4 days, % cells positive for αSMA
From the text: Representative compounds were screened using primary human fibroblasts (derived from IPF patients) treated with TGF-β1 to determine their ability to inhibit the fibrotic process.
Primary human fibroblasts derived from IPF patients (LL29 cells) [^1Xiaoqiu Liu, et. al., “Fibrotic Lung Fibroblasts Show Blunted Inhibition by cAMP Due to Deficient cAMP Response Element-Binding Protein Phosphorylation”, Journal of Pharmacology and Experimental Therapeutics (2005), 315(2), 678-687; ^2Watts, K. L., et. al., “RhoA signaling modulates cyclin D1 expression in human lung fibroblasts; implications for idiopathic pulmonary fibrosis”, Respiratory Research (2006), 7(1), 88] were obtained from American Type Culture Collection (ATCC) and expanded in F12 medium supplemented with 15% Fetal Bovine Serum and Penicillin/Streptomycin.
Each compound was dissolved in DMSO as a 10 mM stock and used to prepare compound source plates. Serial dilution (1:2, 11-point dose-response curves from […] to […]) and compound transfer was performed using the ECHO 550 (Labcyte, Sunnyvale, Calif.) into 384-well clear bottom assay plates (Greiner Bio-One) with appropriate DMSO backfill for a final DMSO concentration of 0.1%. LL29 cells are plated at 1,500 cells/well in 80 μL/well F12 medium supplemented with 1% Fetal Bovine Serum. One hour after addition of the cells, TGF-β1 (Peprotech; 20 ng/mL) was added to the plates to induce fibrosis (ref. 1 and 2 above). Wells treated with TGF-β1 and containing DMSO were used as controls. Cells were incubated at 37° C. and 5% CO2 for 4 days. Following incubation for 4 days, SYTOX green nucleic acid stain (Life Technologies [Thermo Fisher Scientific]) was added to the wells at a final concentration of 1 μM and incubated at room temperature for 30 min. Cells were then fixed using 4% formaldehyde (Electron Microscopy Sciences), washed 3 times with PBS followed by blocking and permeabilization using 3% Bovine Serum Albumin (BSA; Sigma) and 0.3% Triton X-100 (Sigma) in PBS. Cells were then stained with antibody specific to α-smooth muscle actin (aSMA; Abcam) (ref. 1 and 2 above) in 3% Bovine Serum Albumin (BSA; Sigma) and 0.3% Triton X-100 (Sigma) in PBS, and incubated overnight at 4° C. Cells were then washed 3 times with PBS, followed by incubation with Alexa Flor-647 conjugated secondary antibody (Life Technologies [Thermo Fisher Scientific]) and DAPI at room temperature for 1 hour. Cells were then washed 3 times with PBS and plates were sealed for imaging. aSMA staining was imaged by excitation at 630 nm and emission at 665 nm and quantified using the Compartmental Analysis program on the CellInsight CX5 (Thermo Scientific). Dead or apoptotic cells were excluded from analysis based on positive SYTOX green staining. % of total cells positive for aSMA were counted in each well and normalized to the average of 11 wells treated with TGF-β1 on the same plate using Dotmatics' Studies Software. The normalized averages (fold change over untreated) of 3 replicate wells for each compound concentration were used to create dose-responses curves and EC50 values were calculated using non-linear regression curve fit in the Dotmatics' Studies Software. For EC50 of >10 μM, the percent inhibition at 10 μM is provided.

SW480 colon cancer cells = assay: Cell viability assay (CellTiter-Blue), SW480 cells; details: Homo sapiens, 96 h, four days, CellTiter-Blue
Protocol: Representative compounds were screened using the following assay procedure to assess the effect on cell viability as described below.
Each compound was dissolved in DMSO as a 10 mM stock and used to prepare compound source plates. Serial dilution (1:3, 8-point dose-response curves from […]) and compound transfer was performed using the ECHO 550 (Labcyte, Sunnyvale, Calif.) into 96-well clear bottom, black-walled plates (Corning-Costar).
Approximately 2×10^3 SW480 colon cancer cells were seeded into each well and allowed to incubate in the presence or absence of compound for four days at 37° C./5% CO2. Eight replicates of DMSO-treated cells served as controls and cells treated with compound were performed in duplicate.
After incubation, 20 μL of CellTiter-Blue (Promega) was added to each well allowed to incubate for approximately 3 hours. This reagent was a buffered solution which contains resazurin, metabolically active cells were able to reduce rezarurin (blue) into resorufin (pink) which was highly fluorescent. This measured fluorescence was used as a readout for cell viability.
After incubation, the plates were read at Ex 560 nm Em 590 nm (Cytation 3, BioTek). Dose-response curves were generated and EC50 concentration values were calculated using non-linear regression curve fit in the GraphPad Prism (San Diego, Calif.) or Dotmatics' Studies Software (Bishops Stortford, UK). For EC50 of >10 μM, the percent inhibition at 10 μM is provided.

IL-6 = IL-6 inhibition in LPS-stimulated THP-1 cells (HTRF); details: Homo sapiens; for EC50: LPS 500 ng/mL, 22 hours, IL6 HTRF; for inhibition at 10 µM: given for EC50 >10 μM, LPS, IL6, at 10 M [sic], read-out: percent inhibition at 10 M
Protocol: Human monocyte cell line (THP-1 cells; Catalog # TIB-202, ATCC, Manassas, Va.) were cultured in Roswell Park Memorial Institute (RPMI) 1640 Medium (Catalog #21870-100, Buffalo, N.Y.) with 1% L-glutamine, 1% HEPES, 1% Sodium Pyruvate, 2% Sodium Bicarbonate supplemented with 100 units/mL penicillin, 50 μg/mL streptomycin, 2-mercaptoethanol (0.05 mM) [basal medium] and 10% fetal bovine serum (Catalog #16140089, Life Technologies, Carlsbad, Calif.) at 37° C. and 5% CO2.
THP-1 cells were cultured in basal media with 1% FBS for 24 hours before the start of the assay. Each compound was dissolved in DMSO as a 10 mM stock and used to prepare compound source plates. Serial dilution (1:3, 10-point dose-response curves starting from 10 μM) and compound transfer was performed using the ECHO 550 (Labcyte, Sunnyvale, Calif.) into 384-well white low volume assay plates (Greiner Bio-One) with appropriate DMSO backfill for a final DMSO concentration of 0.1%. THP-1 cells were plated at 5000 cells/well in the 384-well plates and incubated at 37° C. for 2 h. 500 ng/mL of LPS was added after 2 hours and cells were incubated for another 22 hours at 37° C. Plates were spun in a centrifuge for 1 minute at […] and a mixture of anti-IL6 XL665, and anti-IL6 Cryptate diluted in reconstitution buffer (Cisbio Inc.) was added to each well. Following incubation for 3 hrs at room temperature, Homogeneous Time-Resolved Fluorescence (HTRF) was measured using the Envision (Perkin Elmer) at 665 nm and […]. The ratio of fluorescence at 665 nm to 620 nm was used as a readout for IL6 quantification. All samples were processed in duplicate. Readings were normalized to DMSO treated cells and normalized activities were utilized for EC50 calculations using the dose-response log (inhibitor) vs. response-variable slope (four parameters) nonlinear regression feature available in GraphPad Prism 5.0 (or Dotmatics). For EC50 of >10 μM, the percent inhibition at […] is provided.

[2] = system: Wnt activity (Sp5-Luc reporter, TCF/LEF binding sites) in SW480 colon carcinoma cells; assay: Wnt activity screening assay, Sp5-Luc reporter gene in SW480 cells; details: Homo sapiens, overnight incubation
From the text: The screening assay for Wnt activity is described as follows. Reporter cell lines can be generated by stably transducing cancer cell lines (e.g., colon cancer) or primary cells (e.g., IEC-6 intestinal cells) with a lentiviral construct that includes a Wnt-responsive promoter driving expression of the firefly luciferase gene.
SW480 colon carcinoma cells were transduced with a lentiviral vector expressing luciferase with a human Sp5 promoter consisting of a sequence of eight TCF/LEF binding sites. SW480 cells stably expressing the Sp5-Luc reporter gene and a hygromycin resistance gene were selected by treatment with 150 μg/mL of hygromycin for 7 days. These stably transduced SW480 cells were expanded in cell culture and used for all further screening activities. Each compound was dissolved in DMSO as a 10 mM stock and used to prepare compound source plates. Serial dilution (1:3, 10-point dose-response curves starting from 10 μM) and compound transfer was performed using the ECHO 550 (Labcyte, Sunnyvale, Calif.) into 384-well white solid bottom assay plates (Greiner Bio-One) with appropriate DMSO backfill for a final DMSO concentration of 0.1%. For Sp5-Luc reporter gene assays, the cells were plated at 4,000 cells/well in 384-well plates with medium containing 1% fetal bovine serum and incubated overnight at 37° C. and 5% CO2. Following incubation, 20 μl of BrightGlo luminescence reagent (Promega) was added to each well of the 384-well assay plates. The plates were placed on an orbital shaker for 2 min and then luminescence was quantified using the Envision (Perkin Elmer) plate reader. Readings were normalized to DMSO only treated cells, and normalized activities were utilized for EC50 calculations using the dose-response log (inhibitor) vs. response-variable slope (four parameters) nonlinear regression feature available in GraphPad Prism 5.0 (or Dotmatics). For EC50 of >10 μM, the percent inhibition at 10 μM is provided.

EC50 (SW480 colon cancer cells) [nM] | EC50 (IL-6) [nM] | EC50 [2] [nM] | Compound | EC50 [1] [nM] | inhibition at 10 µM (IL-6) [%]
413 | 85 | 702 | CC(C)CC(=O)Nc1cncc(-c2ccc3[nH]nc(-c4cc5c(-c6ccccc6F)cncc5[nH]4)c3n2)c1 [Compound 58, N-(5-(3-(4-(2-Fluorophenyl)-1H-pyrrolo[2,3-c]pyridin-2-yl)-1H-pyrazolo [4,3-b]pyridin-5-yl)pyridin-3-yl)-3-methylbutanamide] | 697 | –
1120 | > 10000 | 1280 | Fc1cccc(-c2cncc3[nH]c(-c4n[nH]c5ccc(-c6cncc(OCc7ccccc7)c6)nc45)cc23)c1 [Compound 518, 5-(5-(Benzyloxy)pyridin-3-yl)-3-(4-(3-fluorophenyl)-1H-pyrrolo[2,3-c]pyridin-2-yl)-1H-pyrazolo[4,3-b]pyridine] | 1200 | 35.5
1070 | > 10000 | 1460 | O=C(Nc1cncc(-c2ccc3[nH]nc(-c4cc5c(-c6cccc(F)c6)cncc5[nH]4)c3n2)c1)C1CCCCC1 [Compound 23, N-(5-(3-(4-(3-Fluorophenyl)-1H-pyrrolo[2,3-c]pyridin-2-yl)-1H-pyrazolo [4,3-b]pyridin-5-yl)pyridin-3-yl)cyclohexanecarboxamide] | 718 | 1
1210 | 228 | 1970 | CC(C)(C)C(=O)Nc1cncc(-c2ccc3[nH]nc(-c4cc5c(-c6cccc(F)c6)cncc5[nH]4)c3n2)c1 [Compound 8, N-(5-(3-(4-(3-Fluorophenyl)-1H-pyrrolo[2,3-c]pyridin-2-yl)-1H-pyrazolo [4,3-b]pyridin-5-yl)pyridin-3-yl)pivalamide] | 2310 | –
1120 | > 10000 | 2320 | Fc1ccc(-c2cncc3[nH]c(-c4n[nH]c5ccc(-c6ccccn6)nc45)cc23)cc1 [Compound 56, 3-(4-(4-Fluorophenyl)-1H-pyrrolo[2,3-c]pyridin-2-yl)-5-(pyridin-2-yl)-1H-pyrazolo[4,3-b]pyridine] | 1300 | 32.6
